According to patent US10781224B2, “Bis(oxymethyl)phosphinic acid and biogenic metal salts thereof as regulators of plant growth and development” (priority 2016, dated 2020):
“And” between values parts separate entries of the source, which are not always exact repeats. Identical values can stand only once.

Legend:
Assay type in all cases: in vivo
[1] = tested on: winter wheat (Vershin variety); assay: Winter wheat seed treatment with BHMPA salts: germinating power (length and mass of roots and sprouts)
Summary of the method: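 Seeds (50 per Petri dish on two layers of filter paper) soaked 1 h in BHMPA or its Ca, Mg, Na, Co, Mn, Cu or Zn salts at 1·10^−6-1·10^−12%, with water controls. Germination energy read on day 4, germination on day 8 (wheat) or day 7 (rice, corn), as % means of four replicates. Germinating power taken as root and sprout length plus wet and dry mass per 100 seedlings.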

[2] = tested on: corn (Krasnodar 385 MV variety); assay: Corn seed treatment with BHMPA salts: germination energy and germination rate
Summary of the method: (§1)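 Corn, winter wheat and rice seeds (50 per dish, on filter paper) were soaked for 1 h in BHMPA or its metal salts at 1·10^−6-1·10^−12%, with water as control. Germination energy was read on day 4 and germination rate on day 8 for wheat and day 7 for rice and corn, following GOST 12038-84, as the mean of four replicates.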

[3] = tested on: winter wheat (Vershin variety); assay: Winter wheat seed treatment with BHMPA salts: germination energy and germination rate
Summary of the method: as §1

[4] = comparative study, 1·10^−9% solution
[5] = comparative study vs Melaphen, 1·10^−8% solution
[6] = winter wheat Vershin, 1·10^−6% solution
[7] = winter wheat Vershin, 1·10^−7% solution
[8] = winter wheat Vershin, 1·10^−8% solution
[9] = winter wheat Vershin, 1·10^−9% solution
[10] = winter wheat Vershin, 1·10^−10% solution
[11] = winter wheat Vershin, 1·10^−11% solution
[12] = winter wheat Vershin, 1·10^−12% solution
[13] = winter wheat, comparative study vs Melaphen, 1·10^−9% solution

Substance: Copper BHMPA Salt [Cu-salt]
- effectiveness on germinating power ([1]; 1·10^−6% and 1·10^−12% solutions): weren't effective
- Length, root ([1]; 1·10^−6% solution): 4.6 cm
- Length, root, + % to control ([1]; 1·10^−6% solution): −4%
- Length, sprout ([1]; 1·10^−6% solution): 3.8 cm
- Length, sprout, + % to control ([1]; 1·10^−6% solution): −5%
- Mass, dry, root ([1]; 1·10^−6% solution): 0.41 g/100 plantlings
- Mass, dry, root, + % to control ([1]; 1·10^−6% solution): −2%
- Mass, dry, sprout ([1]; 1·10^−6% solution): 0.35 g/100 plantlings
- Mass, dry, sprout, + % to control ([1]; 1·10^−6% solution): −5%
- Mass, wet, root ([1]; 1·10^−6% solution): 2.61 g/100 plantlings
- Mass, wet, root, + % to control ([1]; 1·10^−6% solution): −7%
- Mass, wet, sprout ([1]; 1·10^−6% solution): 2.70 g/100 plantlings
- Mass, wet, sprout, + % to control ([1]; 1·10^−6% solution): 1.5%
- Length, root ([1]; 1·10^−7% solution): 4.9 cm
- Length, root, + % to control ([1]; 1·10^−7% solution): 2%
- Length, sprout ([1]; 1·10^−7% solution): 4.0 cm
- Length, sprout, + % to control ([1]; 1·10^−7% solution): 0%
- Mass, dry, root ([1]; 1·10^−7% solution): 0.44 g/100 plantlings
- Mass, dry, root, + % to control ([1]; 1·10^−7% solution): 2%
- Mass, dry, sprout ([1]; 1·10^−7% solution): 0.40 g/100 plantlings
- Mass, dry, sprout, + % to control ([1]; 1·10^−7% solution): 8%
- Mass, wet, root ([1]; 1·10^−7% solution): 3.35 g/100 plantlings
- Mass, wet, root, + % to control ([1]; 1·10^−7% solution): 19%
- Mass, wet, sprout ([1]; 1·10^−7% solution): 3.05 g/100 plantlings
- Mass, wet, sprout, + % to control ([1]; 1·10^−7% solution): 15%
- Length, root ([1]; 1·10^−8% solution): 5.1 cm
- Length, root, + % to control ([1]; 1·10^−8% solution): 6%
- Length, sprout ([1]; 1·10^−8% solution): 4.1 cm
- Length, sprout, + % to control ([1]; 1·10^−8% solution): 2.5%
- Mass, dry, root ([1]; 1·10^−8% solution): 0.47 g/100 plantlings
- Mass, dry, root, + % to control ([1]; 1·10^−8% solution): 9%
- Mass, dry, sprout ([1]; 1·10^−8% solution): 0.46 g/100 plantlings
- Mass, dry, sprout, + % to control ([1]; 1·10^−8% solution): 24%
- Mass, wet, root ([1]; 1·10^−8% solution): 3.68 g/100 plantlings
- Mass, wet, root, + % to control ([1]; 1·10^−8% solution): 31%
- Mass, wet, sprout ([1]; 1·10^−8% solution): 3.22 g/100 plantlings
- Mass, wet, sprout, + % to control ([1]; 1·10^−8% solution): 21%
- Length, root ([1]; 1·10^−9% solution): 5.6 cm
- Length, root, + % to control ([1]; 1·10^−9% solution): 17%
- Length, sprout ([1]; 1·10^−9% solution): 4.7 cm
- Length, sprout, + % to control ([1]; 1·10^−9% solution): 17% and 17.5%
- Mass, dry, root ([1]; 1·10^−9% solution): 0.60 g/100 plantlings
- Mass, dry, root, + % to control ([1]; 1·10^−9% solution): 39.5%
- Mass, dry, sprout ([1]; 1·10^−9% solution): 0.50 g/100 plantlings
- Mass, dry, sprout, + % to control ([1]; 1·10^−9% solution): 35%
- Mass, wet, root ([1]; 1·10^−9% solution): 4.13 g/100 plantlings
- Mass, wet, root, + % to control ([1]; 1·10^−9% solution): 47%
- Mass, wet, sprout ([1]; 1·10^−9% solution): 3.61 g/100 plantlings
- Mass, wet, sprout, + % to control ([1]; 1·10^−9% solution): 36%
- Length, root ([1]; 1·10^−10% solution): 5.3 cm
- Length, root, + % to control ([1]; 1·10^−10% solution): 10%
- Length, sprout ([1]; 1·10^−10% solution): 4.4 cm
- Length, sprout, + % to control ([1]; 1·10^−10% solution): 10%
- Mass, dry, root ([1]; 1·10^−10% solution): 0.49 g/100 plantlings
- Mass, dry, root, + % to control ([1]; 1·10^−10% solution): 14%
- Mass, dry, sprout ([1]; 1·10^−10% solution): 0.48 g/100 plantlings
- Mass, dry, sprout, + % to control ([1]; 1·10^−10% solution): 30%
- Mass, wet, root ([1]; 1·10^−10% solution): 3.75 g/100 plantlings
- Mass, wet, root, + % to control ([1]; 1·10^−10% solution): 33.5%
- Mass, wet, sprout ([1]; 1·10^−10% solution): 3.34 g/100 plantlings
- Mass, wet, sprout, + % to control ([1]; 1·10^−10% solution): 25.5%
- Length, root ([1]; 1·10^−11% solution): 5.1 cm
- Length, root, + % to control ([1]; 1·10^−11% solution): 6%
- Length, sprout ([1]; 1·10^−11% solution): 4.1 cm
- Length, sprout, + % to control ([1]; 1·10^−11% solution): 2.5%
- Mass, dry, root ([1]; 1·10^−11% solution): 0.46 g/100 plantlings
- Mass, dry, root, + % to control ([1]; 1·10^−11% solution): 7%
- Mass, dry, sprout ([1]; 1·10^−11% solution): 0.46 g/100 plantlings
- Mass, dry, sprout, + % to control ([1]; 1·10^−11% solution): 24%
- Mass, wet, root ([1]; 1·10^−11% solution): 3.44 g/100 plantlings
- Mass, wet, root, + % to control ([1]; 1·10^−11% solution): 11%
- Mass, wet, sprout ([1]; 1·10^−11% solution): 3.20 g/100 plantlings
- Mass, wet, sprout, + % to control ([1]; 1·10^−11% solution): 20%
- Length, root ([1]; 1·10^−12% solution): 4.8 cm
- Length, root, + % to control ([1]; 1·10^−12% solution): 0%
- Length, sprout ([1]; 1·10^−12% solution): 4.0 cm
- Length, sprout, + % to control ([1]; 1·10^−12% solution): 0%
- Mass, dry, root ([1]; 1·10^−12% solution): 0.41 g/100 plantlings
- Mass, dry, root, + % to control ([1]; 1·10^−12% solution): −2%
- Mass, dry, sprout ([1]; 1·10^−12% solution): 0.42 g/100 plantlings
- Mass, dry, sprout, + % to control ([1]; 1·10^−12% solution): 13.5%
- Mass, wet, root ([1]; 1·10^−12% solution): 3.01 g/100 plantlings
- Mass, wet, root, + % to control ([1]; 1·10^−12% solution): 7%
- Mass, wet, sprout ([1]; 1·10^−12% solution): 2.92 g/100 plantlings
- Mass, wet, sprout, + % to control ([1]; 1·10^−12% solution): 10%
- Length, root [1, 4]: 10.9 cm
- Length, root, + % to control [1, 4]: 25%
- Length, sprout [1, 4]: 7.2 cm
- Length, sprout, + % to control [1, 4]: 16%
- Mass, dry, root [1, 4]: 0.67 g/100 plantlings
- Mass, dry, root, + % to control [1, 4]: 8%
- Mass, dry, sprout [1, 4]: 0.59 g/100 plantlings
- Mass, dry, sprout, + % to control [1, 4]: 16%
- Mass, wet, root [1, 4]: 5.45 g/100 plantlings
- Mass, wet, root, + % to control [1, 4]: 51%
- Mass, wet, sprout [1, 4]: 5.00 g/100 plantlings
- Mass, wet, sprout, + % to control [1, 4]: 26%
- Germination energy ([2]; 1·10^−6% solution): 80.0%
- Germination rate ([2]; 1·10^−6% solution): 82.5%
- Germination energy ([2]; 1·10^−7% solution): 82.3%
- Germination rate ([2]; 1·10^−7% solution): 85.0%
- Germination energy ([2]; 1·10^−8% solution): 91.8%
- Germination rate ([2]; 1·10^−8% solution): 94.2%
- Germination energy ([2]; 1·10^−9% solution): 90.0%
- Germination rate ([2]; 1·10^−9% solution): 92.3%
- Germination energy ([2]; 1·10^−10% solution): 85.8%
- Germination rate ([2]; 1·10^−10% solution): 88.3%
- Germination energy ([2]; 1·10^−11% solution): 82.3%
- Germination rate ([2]; 1·10^−11% solution): 85.0%
- Germination energy ([2]; 1·10^−12% solution): 78.8%
- Germination rate ([2]; 1·10^−12% solution): 81.7%
- Germination energy [2, 5]: 87.7%
- Germination rate [2, 5]: 97.0%
- Germination energy [3, 6]: 81.0%
- Germination rate [3, 6]: 84.0%
- Germination energy [3, 7]: 87.3%
- Germination rate [3, 7]: 90.0%
- Germination energy [3, 8]: 91.4%
- Germination rate [3, 8]: 96.0%
- Germination energy [3, 9]: 94.9%
- Germination rate [3, 9]: 98.0% and 94.3%
- Germination rate ([3]; winter wheat Vershin, 1·10^−9% solution, listed as Cu): 98.0%
- Germination energy [3, 10]: 92.1%
- Germination rate [3, 10]: 96.7%
- Germination energy [3, 11]: 91.7%
- Germination rate [3, 11]: 94.0%
- Germination energy [3, 12]: 87.5%
- Germination rate [3, 12]: 90.0%
- Germination energy [3, 13]: 94.7%
- Germination rate [3, 13]: 98.7%
